Experimental data taken from US20260022142A1, “MACROCYCLIC IMMUNOMODULATORS” (Bristol-Myers Squibb Company, priority 2022, published 2026).
Numbered stars: 1 amine (or outer) side, 2 acyl side, 3 side chain; on linkers, the order of the positions; unused ones are H or OH. Bridge positions count the residues as written; N and C are the ends. Square brackets hold non-standard residues; d marks the D form. Peptide text beside a SMILES is read from it. * marks the point of attachment. ξ: configuration not given here. Phe(3-CF3) = N[C@@H](Cc1cccc(C(F)(F)F)c1)C(=O)O; Phe(4-COOH) = N[C@@H](Cc1ccc(C(=O)O)cc1)C(=O)O; X9 = O=C([C@H](Cc1cc(F)c(F)cc1F)N[*:1])[*:2]; Tyr(3-Cl) = N[C@@H](Cc1ccc(O)c(Cl)c1)C(=O)O; Bip = N[C@@H](Cc1ccc(-c2ccccc2)cc1)C(=O)O; Phe(3-F) = N[C@@H](Cc1cccc(F)c1)C(=O)O; Phe(3-Me) = Cc1cccc(C[C@H](N)C(=O)O)c1; Val(3-OH) = CC(C)(O)[C@H](N)C(=O)O; hArg = N=C(N)NCCCC[C@H](N)C(=O)O; 4Pal = N[C@@H](Cc1ccncc1)C(=O)O; Cha = N[C@@H](CC1CCCCC1)C(=O)O; Cit = NC(=O)NCCC[C@H](N)C(=O)O; Thr(3ξ) = CC(O)[C@H](N)C(=O)O; dDab = NCC[C@@H](N)C(=O)O; Carboxymethyl = O=C(O)C*; Nle = CCCC[C@H](N)C(=O)O; Orn = NCCC[C@H](N)C(=O)O; Pra = C#CC[C@H](N)C(=O)O; Aun = NCCCCCCCCCCC(=O)O; Dab = NCC[C@H](N)C(=O)O; Dap = NC[C@H](N)C(=O)O; AEEA = NCCOCCOCC(=O)O; Piv = CC(C)(C)C(=O)*

Target: T1, PD-1/PD-L1 interaction (PE-labeled human PD-L1-Ig binding to Jurkat cell line over-expressing human PD-1) (Homo sapiens, UniProt Q15116)
T1 construct: expressed in transfected cells; host or cells: Jurkat
Test: Jurkat-PD-1 Cell Binding High-Content Screening Assay (CBA)
Format: cell-based
Conditions: Jurkat cell line over-expressing human PD-1; PE-labeled PD-L1-Ig 20 nM final; read-out: Jurkat hPD1-PDL1 IC50
In short: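 Read-out is high-content imaging of cell-bound phycoerythrin-tagged PD-L1-Ig on fixed, Hoechst-counterstained Jurkat cells that over-express human PD-1. Compound exposure lasts 2 h at 37° C before the labeled ligand (20 nM final) is added for a further hour.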

T1 sequence (Q15116 25-288): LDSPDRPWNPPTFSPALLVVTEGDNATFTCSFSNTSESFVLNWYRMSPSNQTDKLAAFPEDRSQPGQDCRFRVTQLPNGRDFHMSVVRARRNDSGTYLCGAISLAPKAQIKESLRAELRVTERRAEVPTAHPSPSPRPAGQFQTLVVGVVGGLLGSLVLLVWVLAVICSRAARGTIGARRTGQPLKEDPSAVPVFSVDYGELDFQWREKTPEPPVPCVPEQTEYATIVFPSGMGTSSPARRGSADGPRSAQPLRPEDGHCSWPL

| IC50 | SMILES |
| --- | --- |
| 8 nM | Cc1cccc(C[C@@H]2NC(=O)[C@H](CC(=O)O)NC(=O)[C@H](Cc3ccc(OCC(=O)O)cc3)NC(=O)[C@H](CN)NC(=O)CSC[C@@H](C(=O)N[C@@H](CCN)C(=O)NCCOCCOCC(=O)NCCCCCCCCCCC(=O)O)NC(=O)[C@H](CCCN)NC(=O)[C@H](C(C)C)NC(=O)[C@H](CC3CCCCC3)NC(=O)[C@H](CCN)NC(=O)[C@@H](CC(C)C)NC(=O)[C@H](CCCN)NC(=O)[C@H](Cc3ccc(O)c(Cl)c3)NC(=O)[C@H](Cc3ccc(-c4ccccc4)cc3)NC(=O)[C@H](Cc3ccc(O)cc3)NC2=O)c1 [Compound 2057] ({CH2CO}-[Dap]Y(Carboxymethyl)D[Phe(3-Me)]Y[Bip][Tyr(3-Cl)][Orn][dL][Dab][Cha]V[Orn]C[Dab][AEEA][Aun]-OH; thioether N-14) |
| 10.5 nM | CC(=O)NCCCC[C@@H]1NC(=O)[C@H](C(C)C)NC(=O)[C@H](CC2CCCCC2)NC(=O)[C@H](CCN)NC(=O)[C@@H](CC(C)C)NC(=O)[C@H](CCCN)NC(=O)[C@H](C(C)C)NC(=O)[C@H](Cc2ccc(-c3ccccc3)cc2)NC(=O)[C@H](C(C)C)NC(=O)[C@H](Cc2cccc(C)c2)NC(=O)[C@H](CC(=O)O)NC(=O)[C@H](Cc2ccc(OCC(=O)O)cc2)NC(=O)[C@H](C(C)O)NC(=O)CSC[C@@H](C(=O)N[C@H](CCC(N)=O)C(=O)NCCCCCCCCCCC(=O)O)NC1=O (stereo partly drawn) [Compound 3447] ({CH2CO}-[Thr(3ξ)]Y(Carboxymethyl)D[Phe(3-Me)]V[Bip]V[Orn][dL][Dab][Cha]VK(Ac)C[dQ][Aun]-OH; thioether N-14) |
| 13.6 nM | Cc1cccc(C[C@@H]2NC(=O)[C@H](CC(=O)O)NC(=O)[C@H](Cc3ccc(OCC(=O)O)cc3)NC(=O)[C@H](CCN)NC(=O)CSC[C@@H](C(=O)N[C@@H](CCCN)C(=O)N[C@@H](CN)C(=O)NCCCCCCCCCCC(=O)O)NC(=O)[C@H](CCCN)NC(=O)[C@H](C(C)C)NC(=O)[C@H](CC3CCCCC3)NC(=O)[C@H](CCN)NC(=O)[C@@H](CC(C)C)NC(=O)[C@H](CCCN)NC(=O)[C@H](Cc3ccc(O)cc3)NC(=O)[C@H](Cc3ccc(-c4ccccc4)cc3)NC(=O)[C@H](CCCCNC(=O)C(C)(C)C)NC2=O)c1 [Compound 3612] ({CH2CO}-[Dab]Y(Carboxymethyl)D[Phe(3-Me)]K(Piv)[Bip]Y[Orn][dL][Dab][Cha]V[Orn]C[Orn][Dap][Aun]-OH; thioether N-14) |
| 14.2 nM | Cc1cccc(C[C@@H]2NC(=O)[C@H](CC(=O)O)NC(=O)[C@H](Cc3ccc(OCC(=O)O)cc3)NC(=O)[C@H](CCCNC(=N)N)NC(=O)CSC[C@@H](C(=O)N[C@@H](CCN)C(=O)NCCCCCCCCCCC(=O)O)NC(=O)[C@H](C(C)O)NC(=O)[C@H](C(C)C)NC(=O)[C@H](CC3CCCCC3)NC(=O)[C@H](CCN)NC(=O)[C@@H](CC(C)C)NC(=O)[C@H](CCCNC(N)=O)NC(=O)[C@H](CCCN)NC(=O)[C@H](Cc3ccc(-c4ccccc4)cc3)NC(=O)[C@H](C(C)C)NC2=O)c1 (stereo partly drawn) [Compound 3304] ({CH2CO}-RY(Carboxymethyl)D[Phe(3-Me)]V[Bip][Orn][Cit][dL][Dab][Cha]V[Thr(3ξ)]C[Dab][Aun]-OH; thioether N-14) |
| 59.7 nM | CC(C)C[C@H]1NC(=O)[C@H](CCCN)NC(=O)[C@H](Cc2ccc(O)cc2)NC(=O)[C@H](Cc2ccc(-c3ccccc3)cc2)NC(=O)[C@H](C(C)C)NC(=O)[C@H](Cc2cc(F)c(F)cc2F)NC(=O)[C@H](CC(=O)O)NC(=O)[C@H](Cc2ccc(OCC(=O)O)cc2)NC(=O)[C@H](CN)NC(=O)CSC[C@@H](C(=O)N[C@@H](CCN)C(=O)NCCOCCOCC(=O)NCCCCCCCCCCC(=O)O)NC(=O)[C@H](CCCN)NC(=O)[C@H](C(C)C)NC(=O)[C@H](CC2CCCCC2)NC(=O)[C@H](CCN)NC1=O [Compound 1308] ({CH2CO}-[Dap]Y(Carboxymethyl)D[X9]V[Bip]Y[Orn][dL][Dab][Cha]V[Orn]C[Dab][AEEA][Aun]-OH; thioether N-14) |
| 10.4 nM | Cc1cccc(C[C@@H]2NC(=O)[C@H](CC(=O)O)NC(=O)[C@H](Cc3ccc(OCC(=O)O)cc3)NC(=O)[C@H](CN)NC(=O)CSC[C@@H](C(=O)N[C@@H](CCN)C(=O)NCCCCCCCCCCC(=O)O)NC(=O)[C@H]([C@@H](C)O)NC(=O)[C@H](C(C)C)NC(=O)[C@H](CC3CCCCC3)NC(=O)[C@H](CCN)NC(=O)[C@@H](CC(C)C)NC(=O)[C@H](CCCN)NC(=O)[C@H](Cc3ccc(O)cc3)NC(=O)[C@H](Cc3ccc(-c4ccccc4)cc3)NC(=O)[C@H](Cc3ccc(O)cc3)NC2=O)c1 [Compound 2711] ({CH2CO}-[Dap]Y(Carboxymethyl)D[Phe(3-Me)]Y[Bip]Y[Orn][dL][Dab][Cha]VTC[Dab][Aun]-OH; thioether N-14) |
| 57.3 nM | CC(C)C[C@@H]1NC(=O)[C@H](Cc2c[nH]c3ccccc23)NC(=O)[C@H](CC(=O)O)NC(=O)[C@H](Cc2ccc(C(=O)O)cc2)NC(=O)[C@H](Cc2ccncc2)NC(=O)CSC[C@@H](C(=O)N[C@@H](CCN)C(=O)NCCOCCOCC(=O)N[C@@H](CCCN)C(=O)NCCCCCCCCCCC(=O)O)NC(=O)[C@H](CO)NC(=O)[C@H](C(C)C)NC(=O)[C@H](CC2CCCCC2)NC(=O)[C@H](CCN)NC(=O)[C@@H](CC(C)C)NC(=O)[C@H](CCCN)NC(=O)[C@H](C(C)C)NC(=O)[C@H](Cc2ccc(-c3ccccc3)cc2)NC1=O [Compound 3195] ({CH2CO}-[4Pal][Phe(4-COOH)]DWL[Bip]V[Orn][dL][Dab][Cha]VSC[Dab][AEEA][Orn][Aun]-OH; thioether N-14) |
| 18.2 nM | CC(C)C[C@H]1NC(=O)[C@H](CCCN)NC(=O)[C@H](C(C)C)NC(=O)[C@H](Cc2ccc(-c3ccccc3)cc2)NC(=O)[C@H](C(C)C)NC(=O)[C@H](Cc2c[nH]c3ccccc23)NC(=O)[C@H](CC(=O)O)NC(=O)[C@H](Cc2ccc(C(=O)O)cc2)NC(=O)[C@H](Cc2ccc(OCC(=O)O)cc2)NC(=O)CSC[C@@H](C(=O)NCCCCCCCCCCC(=O)O)NC(=O)[C@H](CCCCN)NC(=O)[C@H](C(C)C)NC(=O)[C@H](CC2CCCCC2)NC(=O)[C@H](CCN)NC1=O [Compound 2601] ({CH2CO}-Y(Carboxymethyl)[Phe(4-COOH)]DWV[Bip]V[Orn][dL][Dab][Cha]VKC[Aun]-OH; thioether N-14) |
| 15.6 nM | C#CC[C@H](NC(=O)COCCOCCNC(=O)[C@@H]1CSCC(=O)N[C@@H](Cc2ccncc2)C(=O)N[C@@H](Cc2ccc(OCC(=O)O)cc2)C(=O)N[C@@H](CC(=O)O)C(=O)N[C@@H](Cc2c[nH]c3ccccc23)C(=O)N[C@@H](C(C)C)C(=O)N[C@@H](Cc2ccc(-c3ccccc3)cc2)C(=O)N[C@@H]([C@@H](C)CC)C(=O)N[C@@H](CCCN)C(=O)N[C@H](CC(C)C)C(=O)N[C@@H](CCN)C(=O)N[C@@H](CC(C)C)C(=O)N[C@@H](C(C)C)C(=O)N[C@@H]([C@@H](C)O)C(=O)N1)C(=O)N[C@@H](CN)C(=O)NCCCCCCCCCCC(=O)O [Compound 1211] ({CH2CO}-[4Pal]Y(Carboxymethyl)DWV[Bip]I[Orn][dL][Dab]LVTC[AEEA][Pra][Dap][Aun]-OH; thioether N-14) |
| 14.7 nM | Cc1cccc(C[C@@H]2NC(=O)[C@H](CC(=O)O)NC(=O)[C@H](Cc3ccc(OCC(=O)O)cc3)NC(=O)[C@H](CN)NC(=O)CSC[C@@H](C(=O)N[C@@H](CCN)C(=O)NCCOCCOCC(=O)NCCCCCCCCCCC(=O)O)NC(=O)[C@H](CCCN)NC(=O)[C@H](C(C)C)NC(=O)[C@H](CC3CCCCC3)NC(=O)[C@H](CCN)NC(=O)[C@@H](CC(C)C)NC(=O)[C@H](CCCN)NC(=O)[C@H](Cc3cccc(F)c3)NC(=O)[C@H](Cc3ccc(-c4ccccc4)cc3)NC(=O)[C@H](Cc3ccc(O)cc3)NC2=O)c1 [Compound 2052] ({CH2CO}-[Dap]Y(Carboxymethyl)D[Phe(3-Me)]Y[Bip][Phe(3-F)][Orn][dL][Dab][Cha]V[Orn]C[Dab][AEEA][Aun]-OH; thioether N-14) |
| 14.8 nM | Cc1cccc(C[C@@H]2NC(=O)[C@H](CC(=O)O)NC(=O)[C@H](Cc3ccc(OCC(=O)O)cc3)NC(=O)[C@H](CCCCNC(=N)N)NC(=O)CSC[C@@H](C(=O)N[C@@H](CCCN)C(=O)NCCCCCCCCCCC(=O)O)NC(=O)[C@H](CCCN)NC(=O)[C@H](C(C)C)NC(=O)[C@H](CC3CCCCC3)NC(=O)[C@H](CCN)NC(=O)[C@@H](CC(C)C)NC(=O)[C@H](CCCN)NC(=O)[C@H](C(C)C)NC(=O)[C@H](Cc3ccc(-c4ccccc4)cc3)NC(=O)[C@H](C(C)C)NC2=O)c1 [Compound 3247] ({CH2CO}-[hArg]Y(Carboxymethyl)D[Phe(3-Me)]V[Bip]V[Orn][dL][Dab][Cha]V[Orn]C[Orn][Aun]-OH; thioether N-14) |
| 19.7 nM | CCCC[C@@H]1NC(=O)[C@H](C(C)C)NC(=O)[C@H](CC2CCCCC2)NC(=O)[C@H](CCN)NC(=O)[C@@H](CC(C)C)NC(=O)[C@H](CCCN)NC(=O)[C@H](Cc2ccc(OCC(=O)O)cc2)NC(=O)[C@H](Cc2ccc(-c3ccccc3)cc2)NC(=O)[C@H](Cc2ccc(OCC(=O)O)cc2)NC(=O)[C@H](Cc2cccc(C(F)(F)F)c2)NC(=O)[C@H](CC(=O)O)NC(=O)[C@H](Cc2ccc(C(=O)O)cc2)NC(=O)[C@H](CCN)NC(=O)CSC[C@@H](C(=O)N[C@@H](CCN)C(=O)NCCCCCCCCCCC(=O)O)NC1=O [Compound 3825] ({CH2CO}-[Dab][Phe(4-COOH)]D[Phe(3-CF3)]Y(Carboxymethyl)[Bip]Y(Carboxymethyl)[Orn][dL][Dab][Cha]V[Nle]C[Dab][Aun]-OH; thioether N-14) |
| 239 nM | Cc1cccc(C[C@@H]2NC(=O)[C@H](CC(=O)O)NC(=O)[C@H](Cc3ccc(OCC(=O)O)cc3)NC(=O)[C@@H](CCN)NC(=O)CSC[C@@H](C(=O)N[C@@H](CCN)C(=O)NCCCCCCCCCCC(=O)O)NC(=O)[C@H](Cc3cnc[nH]3)NC(=O)[C@H](C(C)(C)O)NC(=O)[C@H](CC3CCCCC3)NC(=O)[C@H](CCN)NC(=O)[C@@H](CC(C)C)NC(=O)[C@H](CCCN)NC(=O)[C@H](Cc3ccc(C(=O)O)cc3)NC(=O)[C@H](Cc3ccc(-c4ccccc4)cc3)NC(=O)[C@H](Cc3ccc(C(=O)O)cc3)NC2=O)c1 [Compound 3770] ({CH2CO}-[dDab]Y(Carboxymethyl)D[Phe(3-Me)][Phe(4-COOH)][Bip][Phe(4-COOH)][Orn][dL][Dab][Cha][Val(3-OH)]HC[Dab][Aun]-OH; thioether N-14) |
